Results taken from publication PMC11783601, “Analogue-Sensitive Inhibition of Histone Demethylases Uncovers Member-Specific Function in Ribosomal Protein Synthesis” (Journal of the American Chemical Society, 2025).
Like-named read-outs stand apart in the source and are kept apart here.

Tests used:
Assay type in all cases: biochemical
KDM4D-F189A = molecular target: T1, KDM4D-F189A (Homo sapiens, UniProt Q6B0I6, F189A); assay: MALDI-MS demethylase assay on H3K9me3 peptide; conditions: 50 µM (Fig S15)
T1 construct: human KDM4B and KDM4D jmjC catalytic domain for bacterial; Strep II (N); made in house; host or cells: E. coli Rosetta [DE3]
T1 sequence (Q6B0I6 146-312 F189A limits assumed): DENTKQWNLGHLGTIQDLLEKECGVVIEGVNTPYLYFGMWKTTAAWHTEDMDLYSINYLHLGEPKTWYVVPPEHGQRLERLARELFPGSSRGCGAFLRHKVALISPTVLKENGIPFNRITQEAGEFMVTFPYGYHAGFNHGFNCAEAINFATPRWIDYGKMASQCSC
Procedure: (§1) We next tested the inhibitory potential of 6 against these proteins using H3K9me3 peptide substrate and analyzed it by MALDI-MS. […] We subsequently examined the ability of asKDM4 variants to demethylate full-length histones extracted from mammalian cells. HEK293T cells were cultured in the presence of 10 μM n-octyl IOX1, a broad-spectrum inhibitor of demethylases,[41],[42] to generate a hypermethylated proteome (Figure S19). The extracted histone was incubated with the as variants individually, each with or without 6, and the extent of demethylation was analyzed by Western blot using the H3K9me3-specific antibody. […]
(§2) assay (Biorad) kit with BSA concentrations as a standard. […]
(§3) 8. Demethylase activity of the wild type and mutant KDM4 proteins on peptide substrate To monitor enzymatic activity, a demethylase activity assay was optimized and then observed through MALDI-TOF.7 Each histone demethylase assay sample included either wild type or mutant enzyme (10µM KDM4A, 7.5µM KDM4C, 10µM KDM4D, or 1µM KDM4E), 10 µM peptide, 200 µM 2OG, 50 mM Tris pH 8, […], 0-200µM NOG analogue, and 2 mM L-ascorbic acid with a total assay volume of 10 µL. Fe(II) supplement and L-ascorbic acid […]
(§4) Lastly, the 2OG and peptide were […]
(§5) positive mode and analyzed on Bruker FlexAnalysis software. The percent demethylated peptide […]
(§6) the multiple demethylation events on the peptide. […]

wild type KDM4E = molecular target: T2, wild type KDM4E (Homo sapiens, UniProt B2RXH2); assay: MALDI-MS demethylase assay on H3K9me3 peptide
T2 construct: we recombinantly expressed the catalytic domains of 12 wild type dioxygenases, in addition to KDM4A-E; 6xHis (N); host or cells: E. coli BL21 (DE3)
T2 sequence (B2RXH2 143-309 limits assumed): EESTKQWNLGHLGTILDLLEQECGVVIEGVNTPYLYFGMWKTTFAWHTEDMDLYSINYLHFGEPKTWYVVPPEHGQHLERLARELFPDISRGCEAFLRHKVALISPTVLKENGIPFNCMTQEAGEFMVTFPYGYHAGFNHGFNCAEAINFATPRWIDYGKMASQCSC
Procedure: as §1, §2, §3, §4, §5, §6

KDM4C-F187A = molecular target: T3, KDM4C-F187A (Homo sapiens, UniProt Q9H3R0, F187A); assay: MALDI-MS demethylase assay on H3K9me3 peptide; conditions: 50 µM (Fig S14)
T3 construct: 6xHis-tagged human KDM4C catalytic domain construct; 6xHis (N); made in house; host or cells: E. coli BL21 [DE3] star
T3 sequence (Q9H3R0 144-310 F187A limits assumed): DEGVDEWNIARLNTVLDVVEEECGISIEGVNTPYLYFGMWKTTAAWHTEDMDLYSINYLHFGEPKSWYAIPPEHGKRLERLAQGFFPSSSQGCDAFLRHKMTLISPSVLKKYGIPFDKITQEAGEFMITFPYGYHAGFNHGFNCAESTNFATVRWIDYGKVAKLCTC
Procedure: as §1, §2, §3, §4, §5, §6

wild type KDM4D = molecular target: T4, wild type KDM4D (Homo sapiens, UniProt Q6B0I6); assay: MALDI-MS demethylase assay on H3K9me3 peptide
T4 construct: human KDM4B and KDM4D jmjC catalytic domain for bacterial; Strep II (N); made in house; host or cells: E. coli Rosetta [DE3]
T4 sequence (Q6B0I6 146-312 limits assumed): as the sequence (Q6B0I6 146-312 F189A limits assumed) above, with A44F counted along it
Procedure: as §1, §2, §3, §4, §5, §6

KDM6B = molecular target: T5, KDM6B (Homo sapiens, UniProt O15054); assay: MALDI-based assay for KDM6B on H3K27me3 peptide; conditions: MALDI-TOF
T5 construct: The plasmid construct for the catalytic domain of wild type KDM6B; 6xHis (N); made in house; host or cells: E. coli Rosetta [DE3]
T5 sequence (O15054 1339-1502 limits assumed): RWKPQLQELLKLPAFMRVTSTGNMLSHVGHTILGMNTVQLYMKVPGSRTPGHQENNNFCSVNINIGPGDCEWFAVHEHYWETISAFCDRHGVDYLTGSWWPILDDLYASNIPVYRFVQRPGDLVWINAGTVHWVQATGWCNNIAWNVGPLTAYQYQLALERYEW
Procedure: (NH4)2Fe(SO4)2, 1 mM L-ascorbic acid, 1 mM NAD+, 200 nM FDH, and 1 µM KDM4A) in varying concentrations (0-10 µM). The experiments were performed in 384-well white Corning plates. The fluorescence intensity was measured with excitation = 340 nm and emission = 490 nm on a TECAN Infinite M1000Pro. Triplicate values were taken for each concentration.
The set up and analysis for IC50 of L-Leu NOG against KDM4A F185A enzyme was similar to that described in the coupled fluorescence assay section, but adjusted to function as an end point […]
2 mM L-ascorbic acid, 1 mM NAD+, 200 nM FDH, 3 µM wild type KDM4A or KDM4A-F185A, and varying concentration of compounds (NOGs 6, 9 and 10) and a substrate cocktail (200 µM 2OG and 60 µM H3K9me3 peptide). Different concentrations of NOG 6 were measured at one […]
For 9 and 10, the same set-up remained, but enzymatic activity was measured via MALDI-TOF analysis, and relative activity and inhibition was calculated for different NOG concentrations as described above. […]
equivalent volume of water in 10 µL aliquots. […] The sample was ionized with Bruker FlexControl in the reflectron positive mode and analyzed on Bruker FlexAnalysis software. The percent demethylated peptide was calculated by first multiplying the K27me1 peak by 2 and the K27me0 peak by 3 to account for the multiple […]
the reflectron positive mode and analyzed on Bruker FlexAnalysis software. […]

CC(C)CC(NC(=O)C(=O)O)C(=O)O (centres unmarked) [compound 6, N-oxalyl leucine]
inhibition of KDM4D-F189A (KDM4D-F189A): significantly inhibited
inhibition of KDM4D-F189A (KDM4D-F189A; listed as NOG 6): inhibits the mutant completely
inhibition of wild type KDM4E (wild type KDM4E): fully refractory
inhibition of KDM4C-F187A (KDM4C-F187A): significantly inhibited
inhibition of KDM4C-F187A (KDM4C-F187A; listed as NOG 6): inhibits the mutant completely
inhibition of wild type KDM4D (wild type KDM4D): fully refractory
inhibition of wild type KDM4D (wild type KDM4D; listed as NOG 6): does not inhibit
inhibition of KDM6B (KDM6B): No inhibition
